Assay results taken from patent US12251234B2, “Systems and methods for transdermally detecting tissue ischemia and evaluating organ function using serum luminescence” (University of Macau, priority 2018, dated 2025).

Columns and labels:
[1] = system: liver; assay: Biochemical assay of rat serum in DEN-induced hepatocellular carcinoma rat model; format: in vivo
Procedure: Hepatocellular carcinoma (HCC) is a well-known malignant liver tumor often caused by liver cirrhosis. N-Nitrosodiethylamine ([…], DEN), which is a toxic substance with strong liver toxicity, was used to induce HCC in a rat tumor model. The dose of 300 g rats was 0.75 ml DEN/5 liters in drinking water; the dose of 400 g rats was 1.0 ml DEN/5 liters in drinking water. When the rats weighed over 200 g (about 6-7 weeks), they started to be fed. Group 1 was fed a half dose DEN, while Group 3 was fed a full dose. After 6 weeks of consecutive feeding (at the 12th week of experiment), feeding DEN to Group 1 discontinued. Group 3 continued scheduled DEN feedings for three additional weeks. Liver tumors were formed and confirmed by high-frequency ultrasonic imaging in vivo.
After rats were sacrificed, blood was collected and centrifuged, and the serum from centrifuge was tested, which included albumin, total bilirubin, glutamic pyruvic transaminase and glutamic oxaloacetic transaminase. If the liver is abnormal, the albumin content in the blood will decrease. Total bilirubin contains direct bilirubin and indirect bilirubin, which are the product of liver metabolism. If liver function is abnormal, total bilirubin in blood rises. Glutamic-pyruvate transaminase (GPT) and glutamic oxaloacetic transaminase (GOT) are also commonly used markers to evaluate liver function, although these two enzymes are not only found in the liver. Nevertheless, they are more abundant in liver cells than in other organs or tissue. When the liver is damaged, inflamed liver cells release GPT and GOT into the blood in large quantities. Therefore, the amount of these factors in the blood may be useful as a basis for judging the health of liver function. In addition, the liver was made into a paraffin block and processed with H&E staining. The staining results were observed and imaged by Nikon ECLIPSE NiE orthotropic fluorescence microscope.

[2] = ICG fluorescence dosimetry in rat blood vessels (retention/decay of ICG in circulation); format: in vivo
Procedure: Embodiments of the present disclosure enable systems and methods for detecting organ dysfunction and were validated using two optical systems to perform ICG fluorescence dosimetry on rats developing hepatocellular carcinoma (HCC).
One optical system used was a multiphoton microscope, which can non-invasively identify the location of vessels in vivo from sectioning two-photon fluorescence imaging. Time-course dynamics of concentration decay were also analyzed by the signal intensity within vessels. The other tested optical system was a point excitation and time course measurement using a 785 nm laser.
As shown in the diagram of FIG. 11, the multiphoton microscopy system used the scanning inverted microscope system of Leica DMI 3000M. The laser source was the femtosecond Cr:forsterite laser with a central wavelength of about 1250 nm. The output power was about 570 mW, and the beam diameter was about 2.5 mm. The excited light passed through a set of Galilean telescopes consisting of flat convex lenses and flat concave lenses to shrink the beam size down below 2 mm. Then, the excited beam passed through the periscope to rotate the polarization. After passing through the Iris Pair for system alignment, the beam entered a scanning module composed of a 16 kHz resonant mirror and a galvanometer mirror. The scanning angle of the resonant scanner was 5 degrees. The excited light was expanded by a set of relaying lenses so that it just filled the back aperture of the objective lens. The excitation beam was reflected by a 900-nm edged dichroic beam splitter (DM 900 SP) and focused by an objective lens (63×/NA 1.15. Zeiss) to excite biological tissues.
The generated two-photon fluorescence signals of ICG were epi-collected by the same objective lens and penetrated the DM900 SP. The signals were directed to a 484 nm edged dichroic beam splitter (DM484LP). The third harmonic generation signal (417 nm) was separated from the fluorescent signals longer than 484 nm. The third harmonic generation (THG) and two photon fluorescent (TPF) signals were filtered by a 414 nm/18 nm band pass filter and a 650 nm long pass filter, respectively. These signals were subsequently detected by photomultiplier tubes and digitized by a field programmable logic gate array (FPGA).
After the injection of ICG into the tail, there was a relatively low scattering and absorption of laser in the 1230 nm band, so the wavelength band could penetrate the skin deeper, and the background noise was low. Because blood cells can give strong THG signals, it was possible to locate the blood vessel by using THG imaging, as shown in FIG. 15A. Before ICG injection, there was no TPF signal (see FIG. 15B). After the injection, the TPF signals appeared immediately in the region of vessel (see FIG. 15C).
By selecting the region of interest (ROI) within vessel, we quantified the TPF intensity within the vessels. The fluorescence dosimetry curve of ICG can thus be measured (as shown in FIG. 16), which is ideal to evaluate the liver function. The dosimetry curve can be fitted with a single exponential decay function (red curve in FIG. 16), which represents a 4.4 minutes decay time constant after injection of ICG. The decay constant can be used as an index to evaluate the liver function. For Group 1 and Group 3 four serum parameters were measured to obtain liver function information: serum albumin, total bilirubin, GPT, and GOT. […]

[3] = healthy person; cited from earlier work
[4] = Group 1: half dose DEN in drinking water, 6 weeks
[5] = Group 3: full dose DEN in drinking water, 9 weeks
[6] = Group 3 rats (full dose DEN, HCC), FIG. 18

| decay time (exponential decay model fit) [2, 6] | initial amount still retained in circulation at 15 minutes post injection [2, 6] | decay time constant after injection of ICG (single exponential decay fit) ([2]; healthy control Group rats, FIG. 16) | amount of ICG metabolized within 15 minutes ([2]; healthy control Group rats, TPF dosimetry curve, FIG. 16) | Structure (SMILES) | Albumin [1, 4] | GOT [1, 4] | GPT [1, 4] | Total bilirubin [1, 4] | Albumin [1, 5] | GOT [1, 5] | GPT [1, 5] | Total bilirubin [1, 5] | leakage of ICG out of blood vessels (TPF imaging after tail injection) ([2]; rat, sectioning TPF/THG images, FIG. 15) | ICG-15 (retention percentage at 15 minutes post ICG injection) [3] |
| --- | --- | --- | --- | --- | --- | --- | --- | --- | --- | --- | --- | --- | --- | --- |
|  |  |  |  | CCN(CC)N=O [DEN, N-Nitrosodiethylamine] | 3.9 g/dL | 89 U/L | 60.3 U/L | 0.27 mg/dL | 3.75 g/dL | 265 U/L | 129 U/L | 0.6 mg/dL |  |  |
| 13 min | 45% | 4.4 min | 90% | CC1(C)C(/C=C/C=C/C=C/C=C2\N(CCCCS(=O)(=O)O)c3ccc4ccccc4c3C2(C)C)=[N+](CCCCS(=O)(=O)[O-])c2ccc3ccccc3c21 [ICG, indocyanine green] |  |  |  |  |  |  |  |  | did not leak out into extravascular spaces | below 10 % of the initial concentration |
